Test results as given in ChEMBL document CHEMBL6121063, “Identification of a Potent and Selective CDK9 Degrader as a Targeted Therapeutic Option for the Treatment of Small-Cell Lung Cancer” (J Med Chem, 2025).
In brackets after ≈: the same amount, converted by molar mass.

Columns and labels:
[1] = Metabolic stability in mouse liver microsomes assessed as half-life; format: ADME, Microsome; settings: for half-life: liver microsomes
[2] = Metabolic stability in mouse liver microsomes assessed as intrinsic clearance; format: ADME, Microsome; settings: for microsomal CLint: liver microsomes, read-out: CLH
[3] = Metabolic stability in human liver microsomes assessed as half-life; format: ADME, Microsome; settings: for half-life: liver microsomes
[4] = Metabolic stability in human liver microsomes assessed as intrinsic clearance; format: ADME, Microsome; settings: for microsomal CLint: liver microsomes, read-out: CLH
[5] = test system: NCI-H446; assay: Antiproliferative activity against human NCI-H446 cells assessed as inhibition of cell growth incubated for 72 hrs by CCK8 assay; format: functional, cell-based; settings: NCI-H446, 72 h
[6] = test system: NCI-H69; assay: Antiproliferative activity against human NCI-H69 cells assessed as inhibition of cell growth incubated for 72 hrs by CCK8 assay; format: functional, cell-based; settings: NCI-H69, 72 h
[7] = test system: NCI-H69; assay: Induction of apoptosis in human NCI-H69 cells assessed as decrease in MCL-1 expression incubated for 36 hrs by Western blot analysis; format: functional, cell-based
[8] = target: Cyclin-dependent kinase 13/Cyclin-K (Homo sapiens) (UniProt Q14004+O75909); assay: Inhibition of CDK13/Cyclin K (unknown origin) at 10 nM relative to control; format: protein-complex assay
Cyclin-dependent kinase 13/Cyclin-K (Homo sapiens), sequence (O75909 whole entry, looked up): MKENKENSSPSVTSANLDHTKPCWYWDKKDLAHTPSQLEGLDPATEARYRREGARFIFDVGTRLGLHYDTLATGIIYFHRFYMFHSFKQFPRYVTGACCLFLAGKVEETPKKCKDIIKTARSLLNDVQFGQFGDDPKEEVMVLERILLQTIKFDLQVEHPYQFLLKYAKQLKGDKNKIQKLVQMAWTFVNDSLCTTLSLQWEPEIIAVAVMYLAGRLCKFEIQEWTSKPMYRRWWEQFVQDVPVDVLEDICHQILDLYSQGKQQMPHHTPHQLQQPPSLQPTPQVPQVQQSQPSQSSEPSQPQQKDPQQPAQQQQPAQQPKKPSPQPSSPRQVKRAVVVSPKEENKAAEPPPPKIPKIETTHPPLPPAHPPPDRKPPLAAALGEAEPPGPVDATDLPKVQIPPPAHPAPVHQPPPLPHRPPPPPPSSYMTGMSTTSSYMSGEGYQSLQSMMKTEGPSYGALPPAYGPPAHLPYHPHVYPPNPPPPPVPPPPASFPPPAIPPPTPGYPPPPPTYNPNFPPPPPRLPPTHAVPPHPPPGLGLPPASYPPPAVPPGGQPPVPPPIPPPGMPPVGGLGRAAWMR
Cyclin-dependent kinase 13/Cyclin-K (Homo sapiens), sequence (Q14004 whole entry, looked up): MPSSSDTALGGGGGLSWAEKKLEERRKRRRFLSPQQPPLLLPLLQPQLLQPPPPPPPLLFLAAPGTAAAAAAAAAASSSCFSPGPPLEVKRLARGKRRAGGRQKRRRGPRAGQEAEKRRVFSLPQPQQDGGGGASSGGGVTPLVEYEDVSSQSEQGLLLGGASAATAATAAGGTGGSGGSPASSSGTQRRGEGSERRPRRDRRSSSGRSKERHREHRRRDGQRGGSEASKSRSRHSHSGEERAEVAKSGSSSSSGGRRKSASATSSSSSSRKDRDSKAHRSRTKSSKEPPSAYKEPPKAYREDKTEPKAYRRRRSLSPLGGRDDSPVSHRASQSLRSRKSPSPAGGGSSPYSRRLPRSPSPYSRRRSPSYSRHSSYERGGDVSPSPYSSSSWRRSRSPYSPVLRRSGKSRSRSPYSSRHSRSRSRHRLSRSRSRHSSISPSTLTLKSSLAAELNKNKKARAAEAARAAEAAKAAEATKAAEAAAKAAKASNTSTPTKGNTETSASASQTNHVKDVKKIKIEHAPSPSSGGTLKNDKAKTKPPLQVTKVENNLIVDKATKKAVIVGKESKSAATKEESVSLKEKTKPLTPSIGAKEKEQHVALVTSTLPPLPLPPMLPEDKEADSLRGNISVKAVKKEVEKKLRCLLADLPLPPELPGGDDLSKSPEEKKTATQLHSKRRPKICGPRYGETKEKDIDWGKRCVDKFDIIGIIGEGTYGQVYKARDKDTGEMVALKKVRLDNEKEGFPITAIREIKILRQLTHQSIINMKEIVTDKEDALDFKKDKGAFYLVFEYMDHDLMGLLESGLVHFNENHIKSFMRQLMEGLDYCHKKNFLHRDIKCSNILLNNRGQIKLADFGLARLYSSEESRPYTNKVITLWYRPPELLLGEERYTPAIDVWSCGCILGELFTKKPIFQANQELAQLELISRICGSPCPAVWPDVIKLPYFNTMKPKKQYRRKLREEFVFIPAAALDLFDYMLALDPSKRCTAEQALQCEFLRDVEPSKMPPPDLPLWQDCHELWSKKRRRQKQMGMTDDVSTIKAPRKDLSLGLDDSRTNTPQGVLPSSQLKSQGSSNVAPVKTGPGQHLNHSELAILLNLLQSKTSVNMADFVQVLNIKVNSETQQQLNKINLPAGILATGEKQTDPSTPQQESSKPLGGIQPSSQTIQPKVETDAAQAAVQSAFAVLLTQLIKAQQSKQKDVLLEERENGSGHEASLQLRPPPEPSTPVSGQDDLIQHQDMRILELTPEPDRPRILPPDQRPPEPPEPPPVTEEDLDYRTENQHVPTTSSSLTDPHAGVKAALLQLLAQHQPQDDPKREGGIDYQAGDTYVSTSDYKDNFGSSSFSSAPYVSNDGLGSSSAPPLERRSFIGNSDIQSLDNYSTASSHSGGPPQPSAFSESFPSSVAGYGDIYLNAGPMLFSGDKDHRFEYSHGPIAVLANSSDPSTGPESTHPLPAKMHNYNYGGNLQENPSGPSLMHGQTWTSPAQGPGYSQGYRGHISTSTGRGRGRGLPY

[9] = target: T1, Cyclin-dependent kinase 5/CDK5 activator 1 (Homo sapiens) (UniProt Q00535+Q15078); assay: Inhibition of CDK5/p35NCK (unknown origin) at 10 nM relative to control; format: protein-complex assay
T1 sequence (Q00535 whole entry): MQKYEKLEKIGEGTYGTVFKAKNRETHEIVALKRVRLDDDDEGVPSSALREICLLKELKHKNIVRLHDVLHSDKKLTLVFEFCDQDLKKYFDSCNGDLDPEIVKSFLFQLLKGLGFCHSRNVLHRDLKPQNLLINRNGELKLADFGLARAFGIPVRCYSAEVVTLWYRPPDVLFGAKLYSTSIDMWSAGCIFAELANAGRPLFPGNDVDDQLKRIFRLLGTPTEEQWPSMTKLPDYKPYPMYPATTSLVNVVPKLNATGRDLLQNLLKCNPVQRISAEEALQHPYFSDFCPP
T1 sequence (Q15078 99-307 partner limits assumed): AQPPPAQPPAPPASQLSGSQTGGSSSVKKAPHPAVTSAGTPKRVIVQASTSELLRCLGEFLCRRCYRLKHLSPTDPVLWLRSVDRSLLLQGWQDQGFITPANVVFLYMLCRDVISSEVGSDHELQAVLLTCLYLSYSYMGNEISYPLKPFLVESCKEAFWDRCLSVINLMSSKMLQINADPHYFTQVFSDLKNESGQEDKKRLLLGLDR

[10] = test system: NCI-H69; assay: Induction of apoptosis in human NCI-H69 cells assessed as increase in cleaved caspase-3 level incubated for 36 hrs by Western blot analysis; format: functional, cell-based
[11] = target: CDK3/Cyclin E (Homo sapiens) (UniProt P24864+Q00526); assay: Inhibition of CDK3/cyclin E1 (unknown origin) at 10 nM relative to control; format: protein-complex assay
[12] = target: CDK6/cyclin D3 (Homo sapiens) (UniProt P30281+Q00534); assay: Inhibition of CDK6/cyclin D3 (unknown origin) at 10 nM relative to control; format: protein-complex assay
[13] = test system: NCI-H69; assay: Induction of apoptosis in human NCI-H69 cells assessed as increase in cleaved PARP level incubated for 36 hrs by Western blot analysis; format: functional, cell-based
[14] = target: Cyclin-dependent kinase 1/cyclin B1 (Homo sapiens) (UniProt P06493+P14635); assay: Inhibition of CDK1/cyclin B1 (unknown origin) at 10 nM relative to control; format: protein-complex assay
Cyclin-dependent kinase 1/cyclin B1 (Homo sapiens), sequence (P06493 whole entry, looked up): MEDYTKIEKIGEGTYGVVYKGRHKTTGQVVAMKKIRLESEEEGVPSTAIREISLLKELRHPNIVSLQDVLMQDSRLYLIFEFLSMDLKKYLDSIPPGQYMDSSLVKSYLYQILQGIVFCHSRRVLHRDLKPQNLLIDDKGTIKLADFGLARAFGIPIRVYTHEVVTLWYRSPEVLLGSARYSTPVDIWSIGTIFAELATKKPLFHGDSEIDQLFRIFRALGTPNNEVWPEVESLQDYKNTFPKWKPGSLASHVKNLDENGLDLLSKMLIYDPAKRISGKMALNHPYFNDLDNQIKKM
Cyclin-dependent kinase 1/cyclin B1 (Homo sapiens), sequence (P14635 whole entry, looked up): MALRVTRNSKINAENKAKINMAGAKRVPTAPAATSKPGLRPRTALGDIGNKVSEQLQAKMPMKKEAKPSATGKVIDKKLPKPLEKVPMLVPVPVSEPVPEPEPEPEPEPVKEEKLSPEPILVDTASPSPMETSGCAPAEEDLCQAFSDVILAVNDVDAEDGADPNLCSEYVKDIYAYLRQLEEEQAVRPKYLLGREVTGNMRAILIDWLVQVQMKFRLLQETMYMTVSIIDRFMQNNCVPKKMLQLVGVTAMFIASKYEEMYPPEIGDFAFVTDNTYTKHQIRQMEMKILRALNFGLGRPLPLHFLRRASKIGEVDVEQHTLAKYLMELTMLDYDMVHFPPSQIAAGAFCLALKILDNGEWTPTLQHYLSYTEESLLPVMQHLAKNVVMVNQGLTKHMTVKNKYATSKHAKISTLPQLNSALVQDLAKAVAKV

[15] = test system: NCI-H69; assay: Induction of apoptosis in human NCI-H69 cells assessed as decrease in BCL-2 expression incubated for 36 hrs by Western blot analysis; format: functional, cell-based
[16] = target: CDK9/cyclin T1 (Homo sapiens) (UniProt O60563+P50750); assay: Inhibition of CDK9/Cyclin T1 (unknown origin) at 10 nM relative to control; format: protein-complex assay
[17] = target: T1, Cyclin-dependent kinase 5/CDK5 activator 1 (Homo sapiens); assay: Inhibition of CDK5/p25NCK (unknown origin) at 10 nM relative to control; format: protein-complex assay
[18] = test system: NCI-H69; assay: Induction of apoptosis in human NCI-H69 cells assessed as increase in p53 level incubated for 36 hrs by Western blot analysis; format: functional, cell-based
[19] = target: CDK6/cyclin D1 (Homo sapiens) (UniProt P24385+Q00534); assay: Inhibition of CDK6/cyclin D1 (unknown origin) at 10 nM relative to control; format: protein-complex assay
[20] = target: CDK12/Cyclin K (Homo sapiens) (UniProt O75909+Q9NYV4); assay: Inhibition of CDK12/Cyclin K (unknown origin) at 10 nM relative to control; format: protein-complex assay
[21] = target: CDK4/Cyclin D3 (Homo sapiens) (UniProt P11802+P30281); assay: Inhibition of CDK4/cyclin D3 (unknown origin) at 10 nM relative to control; format: protein-complex assay
[22] = target: Cyclin-dependent kinase 4/cyclin D1 (Homo sapiens) (UniProt P11802+P24385); assay: Inhibition of CDK4/cyclin D1 (unknown origin) at 10 nM relative to control; format: protein-complex assay
[23] = Metabolic stability in mouse liver microsomes assessed as parent compound remaining measured after 60 mins; format: ADME, Microsome; settings: read-out: Stability
[24] = target: T2, Protein cereblon/Cyclin-dependent kinase 9 (Homo sapiens, UniProt P50750+Q96SW2); assay: PROTAC activity at CRBN/CDK9 in human NCI-H69 cells assessed as induction of CDK9 degradation at 10 nM by Western blot analysis relative to control; format: cell-based
Target sequence in this assay (P50750 whole entry, looked up): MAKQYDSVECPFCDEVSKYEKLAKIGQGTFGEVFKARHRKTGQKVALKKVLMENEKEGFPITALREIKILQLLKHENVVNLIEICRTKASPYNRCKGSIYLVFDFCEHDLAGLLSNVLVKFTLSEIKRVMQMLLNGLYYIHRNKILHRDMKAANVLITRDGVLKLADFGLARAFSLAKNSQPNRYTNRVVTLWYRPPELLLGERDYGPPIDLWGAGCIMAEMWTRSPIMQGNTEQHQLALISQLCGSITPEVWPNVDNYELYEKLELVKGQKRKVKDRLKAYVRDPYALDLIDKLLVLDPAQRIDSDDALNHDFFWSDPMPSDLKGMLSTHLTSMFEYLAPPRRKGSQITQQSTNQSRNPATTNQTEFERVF
Target sequence in this assay (Q96SW2 whole entry, looked up): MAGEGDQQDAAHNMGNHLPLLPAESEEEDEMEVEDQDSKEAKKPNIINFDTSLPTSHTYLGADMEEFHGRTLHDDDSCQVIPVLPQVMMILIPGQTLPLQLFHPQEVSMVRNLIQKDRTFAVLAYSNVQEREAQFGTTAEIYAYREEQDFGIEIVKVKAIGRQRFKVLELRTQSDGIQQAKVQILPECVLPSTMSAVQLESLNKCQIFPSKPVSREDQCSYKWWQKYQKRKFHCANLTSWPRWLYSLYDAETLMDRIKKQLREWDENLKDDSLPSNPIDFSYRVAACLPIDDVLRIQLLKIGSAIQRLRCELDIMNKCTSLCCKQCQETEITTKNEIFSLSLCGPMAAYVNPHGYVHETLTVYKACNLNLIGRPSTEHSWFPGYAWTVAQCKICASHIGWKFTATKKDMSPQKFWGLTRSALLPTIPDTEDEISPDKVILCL

[25] = Metabolic stability in human liver microsomes assessed as parent compound remaining measured after 60 mins; format: ADME, Microsome; settings: read-out: Stability
[26] = target: T2, Protein cereblon/Cyclin-dependent kinase 9; assay: PROTAC activity at CRBN/CDK9 in human NCI-H69 cells assessed as induction of CDK9 degradation incubated for 8 hrs by Western blot analysis; format: cell-based
Target sequence in this assay (P50750 whole entry): as the sequence (P50750 whole entry, looked up) above
Target sequence in this assay (Q96SW2 whole entry): as the sequence (Q96SW2 whole entry, looked up) above

[27] = target: T2, Protein cereblon/Cyclin-dependent kinase 9; assay: PROTAC activity at CRBN/CDK9 in human NCI-H446 cells assessed as induction of CDK9 degradation at 10 nM by Western blot analysis relative to control; format: cell-based
Target sequence in this assay (P50750 whole entry, looked up): as the sequence (P50750 whole entry, looked up) above
Target sequence in this assay (Q96SW2 whole entry, looked up): as the sequence (Q96SW2 whole entry, looked up) above

[28] = Apparent permeability across basolateral to apical side in human Caco-2 cells at 2 uM measured after 60 mins by HPLC analysis; format: ADME, cell-based
[29] = Apparent permeability across apical to basolateral side in human Caco-2 cells at 2 uM measured after 60 mins by HPLC analysis; format: ADME, cell-based
[30] = Efflux ratio of apparent permeability across basolateral to apical over apical to basolateral side in human Caco-2 cells at 2 uM measured after 60 mins by HPLC analysis; format: ADME, cell-based
[31] = Kinetic solubility of compound in FeSSIF buffer incubated for 2 hrs by LC-MS/MS analysis; format: physicochemical; settings: read-out: Kinetic_solubility

| SMILES | IC50 [5] [nM] | IC50 [6] [nM] | remaining at 1 h [23] [%] | half-life [1] [min] | microsomal CLint [2] [µL/min/mg] | Activity [24] [%] | half-life [3] [min] | remaining at 1 h [25] [%] | DC50 [26] [nM] | microsomal CLint [4] [µL/min/mg] | Activity [27] [%] | other results |
| --- | --- | --- | --- | --- | --- | --- | --- | --- | --- | --- | --- | --- |
| Cc1ncc2n1-c1ccc(Cl)cc1C(c1ccccc1F)=NC2 [MIDAZOLAM] |  |  |  |  |  |  |  |  |  |  |  | t1/2 ([1]; microsomes): 2.72 min; CLH ([2]; microsomes): 1270 µL/min/mg; t1/2 ([3]; microsomes): 2.9 min; CLH ([4]; microsomes): 1200 µL/min/mg |
| O=C(NC1CCNCC1)c1n[nH]cc1NC(=O)c1c(Cl)cccc1Cl [AT-7519] | 173 | 186 |  |  |  |  |  |  |  |  |  | Activity [7]: Dose-dependent-effect; inhibition [8]: 36%; inhibition [9]: 20%; Activity [10]: Dose-dependent-effect; inhibition [11]: 16%; inhibition [12]: 20%; Activity [13]: Dose-dependent-effect; inhibition [14]: 31%; Activity [15]: Dose-dependent-effect; inhibition [16]: 79%; inhibition [17]: 26%; Activity [18]: Dose-dependent-effect; inhibition [19]: 34%; inhibition [20]: 29%; inhibition [21]: 47%; inhibition [22]: 36% |
| O=C1CCC(N2C(=O)c3ccc(N4CCN(CC5CCN(C(=O)CN6CCC(NC(=O)c7n[nH]cc7NC(=O)c7c(Cl)cccc7Cl)CC6)CC5)CC4)cc3C2=O)C(=O)N1 (configuration not stated) | 3.7 | 6.46 | 61.2 | 84.5 | 16.4 | 88.4 | 6.17 | 3.2 | 4.5 | 225 | 78.2 |  |
| O=C1CCC(N2C(=O)c3ccc(N4CCN(CC(=O)N5CCC(NC(=O)c6n[nH]cc6NC(=O)c6c(Cl)cccc6Cl)CC5)CC4)cc3C2=O)C(=O)N1 (configuration not stated) | 349 | 726 |  |  |  | 45.5 |  |  |  |  | 30.9 |  |
| CC(C)NCC(O)COc1cccc2ccccc12 (configuration not stated) [PROPRANOLOL] |  |  |  |  |  |  |  |  |  |  |  | Papp B→A at 1 h, 2 µM [28]: 15.4 ×10⁻⁶ cm/s; Papp A→B at 1 h, 2 µM [29]: 9.64 ×10⁻⁶ cm/s; efflux ratio at 1 h, 2 µM [30]: 1.6 |
| O=C1CCC(Nc2ccc(N3CCN(CC4CCN(CC(=O)N5CCC(NC(=O)c6n[nH]cc6NC(=O)c6c(Cl)cccc6Cl)CC5)CC4)CC3)cc2)C(=O)N1 (configuration not stated) | 35.3 | 11 | 72 | 136 | 10.2 | 88.9 | 58.8 | 64.7 | 5.67 | 26 | 74.1 |  |
| Cl.O=C1CCC(Nc2cccc(N3CCN(CC4CCN(CC(=O)N5CCC(NC(=O)c6n[nH]cc6NC(=O)c6c(Cl)cccc6Cl)CC5)CC4)CC3)c2)C(=O)N1 (configuration not stated) |  |  |  |  |  |  |  |  |  |  |  | solubility kinetic at 2 h [31]: 290 µM |
| O=C1CCC(N2C(=O)c3ccc(N4CCN(CC5CCN(CC(=O)N6CCC(NC(=O)c7n[nH]cc7NC(=O)c7c(Cl)cccc7Cl)CC6)CC5)CC4)cc3C2=O)C(=O)N1 (configuration not stated) | 2.6 | 1.3 | 71.9 | 126 | 11 | 89.1 | 30.4 | 24.3 | 3.8 | 46 | 83.9 | Papp B→A at 1 h, 2 µM [28]: 5.27 ×10⁻⁶ cm/s; Papp A→B at 1 h, 2 µM [29]: 0.326 ×10⁻⁶ cm/s; solubility kinetic at 2 h [31]: 9.08 µM (≈ 7.83 µg/mL); efflux ratio at 1 h, 2 µM [30]: 16.2 |
| O=C(O)Cc1ccccc1Nc1c(Cl)cccc1Cl [DICLOFENAC] |  |  |  |  |  |  |  |  |  |  |  | solubility kinetic at 2 h [31]: 316 µM (≈ 93.6 µg/mL) |
| O=C1CCC(N2C(=O)c3ccc(N4CCN(CC(=O)N5CCC(CN6CCC(NC(=O)c7n[nH]cc7NC(=O)c7c(Cl)cccc7Cl)CC6)CC5)CC4)cc3C2=O)C(=O)N1 (configuration not stated) | 2.01 | 4.82 | 61.1 | 85.6 | 16.2 | 86.1 | 4.75 | 1.2 | 8.97 | 292 | 81.3 |  |
| O=C1CCC(N2C(=O)c3cccc(NCCCCC(=O)N4CCC(NC(=O)c5n[nH]cc5NC(=O)c5c(Cl)cccc5Cl)CC4)c3C2=O)C(=O)N1 (configuration not stated) | 772 | > 1000 |  |  |  | 3.91 |  |  |  |  | 9.92 |  |
| O=C1CCC(N2C(=O)c3ccc(N4CCN(C(=O)CCC(=O)N5CCC(NC(=O)c6n[nH]cc6NC(=O)c6c(Cl)cccc6Cl)CC5)CC4)cc3C2=O)C(=O)N1 (configuration not stated) | 31.7 | 42.5 |  |  |  | 39.1 |  |  |  |  | 31.8 |  |
